Measured values published in US10881694B2, “In vitro model for neuronal death” (priority 2003, dated 2021).

Legend:
cortical neurons [1] = assay: Polarization of somal lipid raft microdomains (CTx-B staining) in cultured cortical neurons; format: cell-based, mouse; details: for inhibition of lipid raft / microdomain polarization: treatment of cortical cultures, neurotoxic insult not specified; for percentage of neurons with polarized raft microdomains: cholesterol-depleted vs control neurons; for inhibition of lipid raft polarization: FIG. 3, 25 μM A-beta 25-35 peptide and 300 μM NMDA
cortical neurons [2] = assay: Neuronal death by LDH release assay (and chromatin fragmentation, FIG. 3) after neurotoxic exposure; format: cell-based, mouse; details: for effect of co-treatment on neuroprotection by statins: co-treatment with HMG-CoA reductase inhibitor
cortical neurons [3] = assay: Chromatin integrity (DAPI): nuclei with condensed and fragmented chromatin; format: cell-based, mouse; details: cholesterol-depleted vs control neurons
[4] = active form of mevastatin; cited from earlier work
[5] = three hours following 20 μM Aβ 25-35

Question: With `C[N+](C)(C)CC(O)CC(=O)[O-]` (stereo not shown) [carnitine] as the molecule, how does the “inhibition of lipid raft / microdomain polarization” value (cortical neurons [1]) read?
Answer: inhibit raft polarization

Question: For `CC[C@H](C)C(=O)O[C@H]1CCC=C2C=C[C@H](C)[C@H](CC[C@@H]3C[C@@H](O)CC(=O)O3)[C@H]21` [mevastatin], which “percentage of neurons with polarized raft microdomains” value (cortical neurons [1]; 1 h following 300 μM NMDA) is on record?
Answer: significantly lower

Question: What about the “inhibition of lipid raft polarization” value (cortical neurons [1]) of the same molecule?
Answer: inhibit lipid raft polarization

Question: And the “percentage of neurons with polarized raft microdomains” value (cortical neurons [1]; [5])?
Answer: significantly lower

Question: And the “protection against neurotoxic exposure (LDH release assay and chromatin fragmentation)” value (“protection against neurotoxic exposure” below) (cortical neurons [2]; 25 μM A-beta 25-35 peptide)?
Answer: protect against neurotoxic exposure

Question: And the “protection against neurotoxic exposure” value (cortical neurons [2]; 300 μM NMDA)?
Answer: protect against neurotoxic exposure

Question: And the “percentage of neurons with condensed and fragmented chromatin” value (cortical neurons [3]; 24 h following 300 μM NMDA)?
Answer: significantly lower

Question: What about the “percentage of neurons with condensed and fragmented chromatin” value (cortical neurons [3]; 48 h following 20 μM Aβ 25-35) of the same molecule?
Answer: significantly lower

Question: And the “lipophilicity relative to simvastatin (times less lipophilic)” value [4]?
Answer: approximately 8 times

Question: What does the source list for `CC(C)CCC[C@@H](C)[C@H]1CC[C@H]2[C@@H]3CC=C4C[C@@H](O)CC[C@]4(C)[C@H]3CC[C@]12C` [cholesterol]?
Answer: effect on cholesterol depletion induced resistance to neuronal death (LDH release) (cortical neurons [2]; 5 μM cholesterol co-incubated with mevastatin, or 2 mM cholesterol complexed with 2.5% βCD for 15 min after 1% βCD, 20 μM Aβ 25-35 or NMDA): prevented; effect of co-treatment on neuroprotection by statins (cortical neurons [2]): substantially attenuated

Question: For `CC(O)(CCO)CC(=O)O` (stereo not shown) [mevalonate], which “effect of co-treatment on neuroprotection by statins” value (cortical neurons [2]) is on record?
Answer: substantially attenuated

Question: With “A-beta 25-35 peptide: beta-amyloid peptide fragment 25-35, neurotoxic stimulus (GSNKGAIIGLM; Amyloid-beta protein 42; UniProt P05067 696-706, looked up, fragment)” as the molecule, how does the “induction of raft microdomain polarization to a pole of the neuronal cell body” value (cortical neurons [1]; neurotoxic stimulus, FIG. 1B) read?
Answer: aggregation and polarization of raft microdomains

Question: With latrunculins as the molecule, how does the “inhibition of lipid raft / microdomain polarization” value (cortical neurons [1]) read?
Answer: prevents the polarization of lipid microdomains

Question: For methyl-β-cyclodextrin [βCD], which “inhibition of raft polarization” value (cortical neurons [1]; 15 min exposure to 25 μM A-beta 25-35 peptide, 1 hr pre-treatment) is on record?
Answer: inhibition of raft polarization

Question: What about the “percentage of neurons with polarized raft microdomains” value (cortical neurons [1]; 1 h following 300 μM NMDA) of the same molecule?
Answer: significantly lower

Question: What about the “inhibition of lipid raft polarization” value (cortical neurons [1]) of the same molecule?
Answer: inhibit lipid raft polarization

Question: And the “percentage of neurons with polarized raft microdomains” value (cortical neurons [1]; [5])?
Answer: significantly lower

Question: And the “inhibition of lipid raft / microdomain polarization” value (cortical neurons [1])?
Answer: inhibits lipid raft polarization

Question: What about the “protection against neurotoxic exposure” value (cortical neurons [2]; 25 μM A-beta 25-35 peptide) of the same molecule?
Answer: protect against neurotoxic exposure

Question: What about the “protection against neurotoxic exposure” value (cortical neurons [2]; 300 μM NMDA) of the same molecule?
Answer: protect against neurotoxic exposure

Question: And the “protection against neuronal death / neurotoxic insults” value (cortical neurons [2]; treatment of cortical cultures, insult not specified)?
Answer: protects against neuronal death

Question: And the “percentage of neurons with condensed and fragmented chromatin” value (cortical neurons [3]; 24 h following 300 μM NMDA)?
Answer: significantly lower

Question: And the “percentage of neurons with condensed and fragmented chromatin” value (cortical neurons [3]; 48 h following 20 μM Aβ 25-35)?
Answer: significantly lower

Question: For `C=C1[C@@H](C)[C@H]2[C@H](Cc3ccccc3)NC(=O)[C@]23[C@H](OC(C)=O)/C=C/[C@@](C)(O)C(=O)[C@@H](C)C/C=C/[C@H]3[C@@H]1O` [cytochalasin D], which “inhibition of lipid raft / microdomain polarization” value (cortical neurons [1]) is on record?
Answer: prevents the polarization of lipid microdomains
